Results taken from patent US8152784B2, “Method for treating or preventing steroid-induced glaucoma” (Wisconsin Alumni Research Foundation, priority 2005, dated 2012).

What was measured:
[1] = tested on: trabecular meshwork cells; assay: CLAN formation in trabecular meshwork cells on fibronectin-coated cover slips with Src kinase inhibitor; format: cell-based, human; conditions: PP2 20 μM
Description: (§1) Cultured, diploid human trabecular meshwork cells obtained from trabecular meshwork explants were plated on coverslips coated with extracellular matrix materials, including poly-L-lysine (20 nM in PBS), fibronectin (100 nM in PBS), type I collagen (20 nM in PBS), type IV collagen (20 nM in PBS), vitronectin (20 nM in PBS), vascular cell adhesion molecule (VCAM-1, an α4β1 ligand; 20 nM in PBS), fibronectin III7-10 domain (an α5β1 ligand; 20 nM in PBS), fibronectin III12-14 domain (20 nM in PBS), or fibronectin IICS domains (20 nM in PBS), or activating antibodies to β1 (anti-B3B11; Chemicon Int'l, Inc.; Temecula, Calif.; 10 μg/ml), β3 (anti-AP-5; The Blood Center of Southeastern Wisconsin; Milwaukee, Wis.; 8 μg/ml), or α2β1 (anti-JBS2; Chemicon Int'l, Inc.; 6 μg/ml) integrins. In experiments using antibodies as substrates, coverslips were pre-coated with 1:100 unconjugated goat anti-mouse IgG (Jackson Immunoresearch, Inc.; West Grove, Pa.). In some instances, anti-β3 antibodies were used as soluble ligands. […]
CLAN formation was assessed by immunofluorescence microscopy. […] Anti-F-actin was detected using either Alexa 488 conjugated goat anti-rabbit IgG or Alexa 488 conjugated donkey anti-rabbit IgG. All monoclonal antibodies were detected using Alexa 546 conjugated goat anti-mouse IgG. […]

[2] = tested on: human trabecular meshwork cells; assay: CLAN formation in cultured human trabecular meshwork cells spread on coated coverslips, immunofluorescence microscopy; format: cell-based; conditions: adsorbed substrate on coverslip, cells spread three hours
Description: as §1
CLAN formation was assessed by immunofluorescence microscopy. […] Anti-F-actin was detected using either Alexa 488 conjugated goat anti-rabbit IgG or Alexa 488 conjugated donkey anti-rabbit IgG. All monoclonal antibodies were detected using Alexa 546 conjugated goat anti-mouse IgG.

Compound	CLAN formation, % of cells ([1]; absence of soluble anti-β3, control cells 10%)	CLAN formation, % of cells ([1]; presence of soluble anti-β3, control cells 30%)	CLAN formation, % of the cells [2]
CC(C)(C)n1nc(-c2ccc(Cl)cc2)c2c(N)ncnc21 [PP2]	0%	1%	
fibronectin			13%
